Assay results taken from US8653086B2, “Naphthamides as anticancer agents” (Oregon Health & Science University, priority 2008, dated 2014).

Columns and labels:
MCF-7 cells [1] = test: MCF-7 cell growth inhibition, MTT (Example 2); format: cell-based; details: Homo sapiens, MCF7, 72 h, mean ± SD of at least two measurements in duplicates unless noted
Method: (§1) HeLa cells (human cervical cancer cells) were obtained from American Type Culture Collection (ATCC) and maintained in Dulbecco's modified Eagle medium (DMEM, Invitrogen, Carlsbad, Calif.) supplemented with 10% (v/v) fetal calf serum (Sigma, St. Louis, Mo.), 10 μg/mL penicillin and 10 μg/mL streptomycin (Invitrogen, Carlsbad, Calif.) at 37° C. under 5% CO2. HeLa cells (2,000 cells/well) were plated in 96-well plates the day before experiment. On the day of experiment, different concentrations of the drugs (final concentration 10^−8-10^−4 M) in duplicates were added to the cells and the cells were further incubated for 72 h. Then, the number of live cells was quantified by 3-(4,5-dimethyl-2-thiazolyl)-2,5-diphenyl-2H-tetrazolium bromide (MIT reagent, Sigma, St. Louis, Mo.).
(§2) Following the same procedure, identical experiments were performed using, A549 cells (human lung cancer cells) and MCF-7 cells (human breast cancer cells).
(§3) The amount of reduced MTT formazan generated by live cells was determined by its absorbance at 570 nm after subtracting the background absorbance at 690 nm. The percent of cell growth was expressed as (A570(treated)−A570(initial))/(A570(vehicle treated)−A570(initial))×100, where A570(initial) represents initial cell population when drugs are added. The GI50 were derived from non-linear regression analysis of the dose-response curve using Prism 4.0 (GraphPad).

A549 cells [2] = test: A549 cell growth inhibition, MTT (Example 2); format: cell-based; details: Homo sapiens, 72 h, mean ± SD of at least two measurements in duplicates unless noted
Method: as §1, §2, §3

HeLa cells [3] = test: HeLa cell growth inhibition, MTT (Example 2); format: cell-based; details: Homo sapiens, 72 h, mean ± SD of at least two measurements in duplicates unless noted
Method: as §1, §3

A549 cells [4] = test: A549 cancer cell growth inhibition, MTT (Example 6); format: cell-based; details: Homo sapiens, 72-h incubation
Method: (§4) HeLa, A549, and MCF-7 cells, in a 96-well plate (1.0×10^5/well) were treated with different concentrations of the compounds for 72 h. Then the number of cells was quantified by incubating cells with MTT reagent (Sigma, 50 μg/mL) for 3 h. The reduced formazan product was solubilized in DMSO to be measured spectrophotometrically at 570 nm.

MCF-7 cells [5] = test: MCF-7 cancer cell growth inhibition, MTT (Example 6); format: cell-based; details: Homo sapiens, MCF7, 72-h incubation
Method: as §4

HeLa cells [6] = test: HeLa cancer cell growth inhibition, MTT (Example 6); format: cell-based; details: Homo sapiens, 72-h incubation
Method: as §4

primary rat neurons = details: E18 rat neurons, 48 h; naphthols up to 10 μM; CPT positive control
Method: E18 rat neurons were isolated from Sprague-Dawley rats at 18 days after gestation. The isolated neurons were plated into a 6-well plate coated with poly-D-lysine. On day 5 after plating the neurons, different compounds of indicated concentrations were added (in triplicates) and incubated with the neurons for 48 h. Then the neurons were harvested and the number of live neurons was counted with a hemacytometer after staining with trypan blue. Data were presented as mean±SD.
CREB is a pleiotrophic factor involved in many different cellular processes including neuronal survival. The possibility of neuronal cell death might be a concern for CREB inhibitors in the future clinical applications if they could cross the blood brain barrier. Therefore, the toxicity of naphthol AS-E phosphate (i) or its active form, naphthol AS-E (ii), to primary rat neurons was investigated. Isolated E18 rat neurons were treated with increasing concentrations of naphthol AS-E phosphate (i) or naphthol AS-E (ii) for 48 h. […] At the end of the treatment, the neurons were collected and the number of live neurons were counted using trypan blue exclusion assay (FIG. 3).

[7] = Maximum tolerated dose in nude mice; format: in vivo; details: for tolerability: ten days
Method: The maximum tolerated dose (MTD) of compound 4 and compound 7 was evaluated in nude mice.
In this study 7 groups were established, each with three mice per group. 10 μl/g of a mixture of 10 ml of DMSO and 10 ml sterile saline was administered per day to group I, the control group; compound 4 was administered intravenously at dose levels of 10, 25, and 50 mg/kg and a dose volume of 10 μl/g per day to groups 2-4 respectively; and compound 7 was administered intravenously at dose levels of 10, 25, and 50 mg/kg and a dose volume of 10 μl/g per day to groups 5-7 respectively. The study was run for ten days.
Animals were monitored individually up to 7 days after final treatment. Daily general health observations included animal mortality, appearance, spontaneous activity, body posture, and food and water intake. Lesions and any other adverse reactions were recorded.

KIX-KID interaction = molecular target: T1, KIX-KID interaction (Homo sapiens, UniProt Q92793); test: In vitro renilla luciferase complementation assay; format: biochemical; details: 4° C., 24 h, read-out: KIX-KID interaction inhibition IC50
T1 construct: RLucC-KIX (15 ng) and KID-RLucN-containing cell lysates; made in house
Method: RLucC-KIX (15 ng) and KID-RLucN-containing cell lysates (0.5 mg) were mixed together in renilla luciferase lysis buffer (Promega, Madison, Wis.) in the presence of different concentrations of compounds. The final volume of the incubation mixture is 30 μL. The mixture was incubated at 4° C. for 24 h. Then renilla luciferase activity was measured by combining 5 μL of incubation mixture with 30 μL of coelenterazine solution in PBS (pH 7.4, 10 μg/mL).

[8] = test system: CREB-mediated gene transcription; test: CREB renilla luciferase reporter assay in HEK293T cells; format: cell-based; details: Homo sapiens, HEK-293T, forskolin 10 μM, read-out: CREB transcription inhibition IC50
Method: HEK293T cells in a 10-cm plate were transfected with pCRE-RLuc (6.0 μg) with Lipofectamine™ 2000 (Invitrogen, Carlsbad, Calif.) according to manufacturer's protocol. After 3 h, the transfected cells were collected and replated into a 96-well plate (4×10^4 cells/well). The cells were allowed to attach to the bottom of the wells for overnight, when compounds of different concentrations were added to the cells. Forskolin (final concentration of 10 μM, Alexis Biochemicals, San Diego, Calif.) was added 30 min after the addition of the compounds. The cells were then incubated at 37° C. for 4.5 h and the media were removed. The cells were then lysed in renilla luciferase lysis buffer (Promega, Madison, Wis.). To measure luciferase activity, five μL of the lysate was combined with 30 μL of coelenterazine (Nanolight, Pinetop, Ariz.) solution in PBS (10 μg/mL). The sample protein concentration was determined by Dye Reagent Concentrate (Bio-Rad, Hercules, Calif.). The luciferase activity was normalized to protein content in each well and expressed as RLU/μg protein.

T1 sequence (Q92793 587-666 limits assumed): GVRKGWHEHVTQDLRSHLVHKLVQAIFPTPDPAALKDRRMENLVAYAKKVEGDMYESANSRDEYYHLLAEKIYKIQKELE

Compound	GI50 (MCF-7 cells [1]) [µM]	GI50 (A549 cells [2]) [µM]	GI50 (HeLa cells [3]) [µM]	also measured
NCCCOc1cc2ccccc2cc1C(=O)Nc1ccc(Cl)cc1	0.84 ± 0.18	3.42 ± 0.43	1.47 ± 0.42	
O=C(Nc1ccc(C(F)(F)F)cc1)c1cc2ccccc2cc1O	3.62 ± 2.56	4.15 ± 0.5	2.4 ± 0.36	
O=C(Nc1ccccc1)c1cc2ccccc2cc1O	4.87 ± 1.27	56.9 ± 7.75	26.9	
O=C(Nc1ccccn1)c1cc2ccccc2cc1O	6.25 ± 5.89	75.8 ± 23.1	11.5 ± 8.9	
O=C(Nc1ccncc1)c1cc2ccccc2cc1O	15.8 ± 5.29	25 ± 10.7	6.14 ± 3.03	
O=C(Nc1cnccn1)c1cc2ccccc2cc1O	12.7 ± 13.2	32.2 ± 2.88	12.6 ± 12.1	
COc1cc2ccccc2cc1C(=O)Nc1ccc(Cl)cc1OC(=O)c1cc2ccccc2cc1OCCCN				GI50 (A549 cells [4]): 12.9 µM; GI50 (MCF-7 cells [5]): 19.4 µM; GI50 (HeLa cells [6]): 2.33 µM
COc1cc2ccccc2cc1C(=O)Oc1cc(Cl)ccc1NC(=O)c1cc2ccccc2cc1OCCCN				GI50 (A549 cells [4]): 12.9 µM; GI50 (MCF-7 cells [5]): 29.4 µM; GI50 (HeLa cells [6]): 3.12 µM
CC[C@@]1(O)C(=O)OCc2c1cc1n(c2=O)Cc2cc3ccccc3nc2-1 [CPT, camptothecin]				neuronal cell death (primary rat neurons): killed most of the neurons
Cl.Cl.NCCCOc1cc(Cl)ccc1NC(=O)c1cc2ccccc2cc1OCCCN [Compound 4, 3-(3-Aminopropoxyl)-N-(2-(3-aminopropoxy)-4-chlorophenyl)-2-naphthamide dihydrochloride]				tolerability ([7]; 10 mg/kg per day intravenously): tolerated very well; tolerability ([7]; 25 mg/kg per day intravenously): tolerated very well; tolerability ([7]; 50 mg/kg per day intravenously): minor toxicity; body weight loss ([7]; 50 mg/kg, two of three animals at day 5 and day 6, recovery from day 7): 10-20%
NCCCOc1cc2ccccc2cc1C(=O)Nc1ccc(Cl)cc1OC(=O)c1cc2ccccc2cc1OCCCN [Compound 7]				tolerability ([7]; 10 mg/kg per day intravenously): tolerated very well; tolerability ([7]; 25 mg/kg per day intravenously): tolerated very well; local effect at injection site ([7]; 50 mg/kg intravenously): severe irritative effect on tail skin; tolerability ([7]; 50 mg/kg per day intravenously): tolerated very well
O=C(Nc1ccc(Cl)cc1)c1cc2ccccc2cc1O [drawing 32]	2.76 ± 0.35	2.88 ± 0.35	2.52 ± 0.77	
O=C(Nc1ccc(Cl)cc1)c1cc2ccccc2cc1OP(=O)(O)O [drawing 33]	1.93	1.94	2.53 ± 0.58	
COc1cc2ccccc2cc1C(=O)Nc1ccc(Cl)cc1OC(=O)c1cc2ccccc2cc1OC [drawing 35]	2.96 ± 0.66	5.25 ± 0.75	0.27 ± 0.19	
NCCCOc1cc(Cl)ccc1NC(=O)c1cc2ccccc2cc1OCCCN [drawing 36]	1.65 ± 0.42	2.57 ± 0.41	0.48 ± 0.35	
O=C(Nc1ccc(Cl)cc1)c1cc2ccccc2cc1O [drawing 53]				IC50 (KIX-KID interaction): 2.41 µM; GI50 (A549 cells [4]): 4.58 ± 1.52 µM; IC50 [8]: 2.2 µM; GI50 (MCF-7 cells [5]): 2.56 ± 0.45 µM; GI50 (HeLa cells [6]): 2.97 ± 0.74 µM
NCCCOc1cc(Cl)ccc1NC(=O)c1cc2ccccc2cc1OCCCN [drawing 54]				IC50 (KIX-KID interaction): 14.7 µM; GI50 (A549 cells [4]): 1.84 ± 0.11 µM; IC50 [8]: 22.9 µM; GI50 (MCF-7 cells [5]): 1.69 ± 0.39 µM; GI50 (HeLa cells [6]): 0.71 ± 0.21 µM
COc1cc2ccccc2cc1C(=O)Nc1ccc(Cl)cc1OC(=O)c1cc2ccccc2cc1OC [drawing 55]				IC50 (KIX-KID interaction): 0.25 µM; GI50 (A549 cells [4]): 8.78 ± 2.55 µM; IC50 [8]: 1.14 µM; GI50 (MCF-7 cells [5]): 3.38 ± 0.49 µM; GI50 (HeLa cells [6]): 0.33 ± 0.07 µM
NCCCOc1cc2ccccc2cc1C(=O)Nc1ccc(Cl)cc1OC(=O)c1cc2ccccc2cc1OCCCN [drawing 56]				IC50 (KIX-KID interaction): 7.08 µM; GI50 (A549 cells [4]): 0.59 ± 0.02 µM; IC50 [8]: 2.74 µM; GI50 (MCF-7 cells [5]): 0.42 ± 0.15 µM; GI50 (HeLa cells [6]): 0.29 ± 0.05 µM

Now from value to compound, other results behind:

GI50 (MCF-7 cells [1]) [µM]	GI50 (A549 cells [2]) [µM]	GI50 (HeLa cells [3]) [µM]	Compound	also measured
2.34 ± 0.51	6.78 ± 1.32	2.06 ± 0.31	O=C(Nc1ccc(F)cc1)c1cc2ccccc2cc1O	
1.83 ± 0.7	3.98 ± 0.65	2.12 ± 0.007	O=C(Nc1ccc(Br)cc1)c1cc2ccccc2cc1O	
9.76 ± 6.31	5.45 ± 0.89	3.74 ± 0.81	O=C(Nc1ccc(I)cc1)c1cc2ccccc2cc1O	
1.5 ± 0.16	3.28 ± 0.31	2.94 ± 0.7	O=C(Nc1ccc([N+](=O)[O-])cc1)c1cc2ccccc2cc1O	
28 ± 4.63	51.6 ± 11.9	67.2 ± 46.3	Nc1ccc(NC(=O)c2cc3ccccc3cc2O)cc1	
6.8 ± 6.34	28.1	42.3 ± 6.7	O=C(Nc1ccc(O)cc1)c1cc2ccccc2cc1O	
6.55 ± 2.28	85.7 ± 8.74	8.32 ± 0.55	COc1ccc(NC(=O)c2cc3ccccc3cc2O)cc1	
2.09 ± 0.82	3.57 ± 0.23	2.18 ± 0.17	O=C(Nc1ccc(F)c(F)c1)c1cc2ccccc2cc1O	
5.21 ± 4.92	3.76 ± 0.31	2.44 ± 0.56	O=C(Nc1ccc(F)c(Cl)c1)c1cc2ccccc2cc1O	
13.6 ± 4.9	29.5 ± 5.27	12.9 ± 4.34	CN(C(=O)c1cc2ccccc2cc1O)c1ccc(Cl)cc1	
24.8 ± 0.94	62 ± 15.5	5.2 ± 0.61	COc1cc2ccccc2cc1C(=O)Nc1ccc(Cl)cc1	
